Assay results as given in PubChem BioAssay (NCI).
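Protocol summary: plate cells (96-well), add compound at 5 concentrations, incubate 48 h, interpolate endpoints linearly. Abbreviation: GI50, concentration required for 50% inhibition of growth. Definition used: TGI = concentration required for complete inhibition of growth.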

How the values were obtained:
Experiment in all cases: inhibition of tumour cell growth, NCI panel, 48 h
786-0 renal = test system: 786-0 renal
BT-549 breast = test system: BT-549 breast
COLO 205 colon = test system: COLO 205 colon
HCC-2998 colon = test system: HCC-2998 colon
HCT-116 colon = test system: HCT-116 colon
HL-60(TB) leukemia = test system: HL-60(TB) leukemia
HOP-92 NSCLC = test system: HOP-92 NSCLC
HS 578T breast = test system: HS 578T breast
IGROV1 ovarian = test system: IGROV1 ovarian
MCF7 breast = test system: MCF7 breast
MDA-MB-231 breast = test system: MDA-MB-231 breast
MOLT-4 leukemia = test system: MOLT-4 leukemia
NCI-H522 lung = test system: NCI-H522 lung
NCI/ADR-RES ovarian = test system: NCI/ADR-RES ovarian
OVCAR-5 ovarian = test system: OVCAR-5 ovarian
RPMI-8226 leukemia = test system: RPMI-8226 leukemia
SF-268 CNS = test system: SF-268 CNS
SF-295 CNS = test system: SF-295 CNS
SF-539 CNS = test system: SF-539 CNS
SK-MEL-2 melanoma = test system: SK-MEL-2 melanoma
SK-MEL-5 melanoma = test system: SK-MEL-5 melanoma
SK-OV-3 ovarian = test system: SK-OV-3 ovarian
SNB-19 CNS = test system: SNB-19 CNS
SNB-75 CNS = test system: SNB-75 CNS
T-47D breast = test system: T-47D breast
TK-10 renal = test system: TK-10 renal
U251 CNS = test system: U251 CNS
UO-31 renal = test system: UO-31 renal
A498 renal = test system: A498 renal
A549 NSCLC = test system: A549 NSCLC
ACHN renal = test system: ACHN renal
CCRF-CEM leukemia = test system: CCRF-CEM leukemia
DU-145 prostate = test system: DU-145 prostate
EKVX NSCLC = test system: EKVX NSCLC
HCT-15 colon = test system: HCT-15 colon
HOP-62 NSCLC = test system: HOP-62 NSCLC
HT29 colon = test system: HT29 colon
KM12 colon = test system: KM12 colon
LOX IMVI melanoma = test system: LOX IMVI melanoma
M14 melanoma = test system: M14 melanoma
MALME-3M melanoma = test system: MALME-3M melanoma
NCI-H226 lung = test system: NCI-H226 lung
NCI-H23 lung = test system: NCI-H23 lung
NCI-H460 lung = test system: NCI-H460 lung
OVCAR-3 ovarian = test system: OVCAR-3 ovarian
OVCAR-4 ovarian = test system: OVCAR-4 ovarian
OVCAR-8 ovarian = test system: OVCAR-8 ovarian
PC-3 prostate = test system: PC-3 prostate
RXF 393 renal = test system: RXF 393 renal
SK-MEL-28 melanoma = test system: SK-MEL-28 melanoma
SN12C renal = test system: SN12C renal
SW-620 colon = test system: SW-620 colon
UACC-257 melanoma = test system: UACC-257 melanoma
UACC-62 melanoma = test system: UACC-62 melanoma

N=C1S/C(=C/c2ccc(-c3ccc4c(c3)C(=O)NC4=O)o2)C(=O)N1c1ccc(Br)cc1
GI50 (786-0 renal): 3.45 µM | TGI (786-0 renal): > 100 µM | GI50 (BT-549 breast): 4.31 µM | TGI (BT-549 breast): 56 µM | GI50 (COLO 205 colon): > 100 µM | TGI (COLO 205 colon): > 100 µM | GI50 (HCC-2998 colon): > 100 µM | TGI (HCC-2998 colon): > 100 µM | GI50 (HCT-116 colon): 3.65 µM | TGI (HCT-116 colon): > 100 µM | GI50 (HL-60(TB) leukemia): > 100 µM | TGI (HL-60(TB) leukemia): > 100 µM | GI50 (HOP-92 NSCLC): 1.81 µM | TGI (HOP-92 NSCLC): 8.56 µM | GI50 (HS 578T breast): 7.5 µM | TGI (HS 578T breast): > 100 µM | GI50 (IGROV1 ovarian): 15.9 µM | TGI (IGROV1 ovarian): > 100 µM | GI50 (MCF7 breast): 3.68 µM | TGI (MCF7 breast): > 100 µM | GI50 (MDA-MB-231 breast): 4.21 µM | TGI (MDA-MB-231 breast): > 100 µM | GI50 (MOLT-4 leukemia): > 100 µM | TGI (MOLT-4 leukemia): > 100 µM | GI50 (NCI-H522 lung): 3.63 µM | TGI (NCI-H522 lung): > 100 µM | GI50 (NCI/ADR-RES ovarian): > 100 µM | TGI (NCI/ADR-RES ovarian): > 100 µM | GI50 (OVCAR-5 ovarian): > 100 µM | TGI (OVCAR-5 ovarian): > 100 µM | GI50 (RPMI-8226 leukemia): 4.2 µM | TGI (RPMI-8226 leukemia): > 100 µM | GI50 (SF-268 CNS): 6.3 µM | TGI (SF-268 CNS): > 100 µM | GI50 (SF-295 CNS): 2.96 µM | TGI (SF-295 CNS): 8.95 µM | GI50 (SF-539 CNS): > 100 µM | TGI (SF-539 CNS): > 100 µM | GI50 (SK-MEL-2 melanoma): 11.7 µM | TGI (SK-MEL-2 melanoma): 41.8 µM | GI50 (SK-MEL-5 melanoma): 3.48 µM | TGI (SK-MEL-5 melanoma): > 100 µM | GI50 (SK-OV-3 ovarian): 6.19 µM | TGI (SK-OV-3 ovarian): > 100 µM | GI50 (SNB-19 CNS): > 100 µM | TGI (SNB-19 CNS): > 100 µM | GI50 (SNB-75 CNS): 2.17 µM | TGI (SNB-75 CNS): 6.76 µM | GI50 (T-47D breast): 2.92 µM | TGI (T-47D breast): > 100 µM | GI50 (TK-10 renal): 3.32 µM | TGI (TK-10 renal): > 100 µM | GI50 (U251 CNS): 2.91 µM | TGI (U251 CNS): 8.23 µM | GI50 (UO-31 renal): > 100 µM | TGI (UO-31 renal): > 100 µM

COc1cc(-c2nn(-c3ccc(NC(=O)NCCCNC(=O)c4ccccc4)cc3)cc2-c2ccncc2)ccc1Cl
GI50 (786-0 renal): 0.493 µM | TGI (786-0 renal): 2.86 µM | GI50 (A498 renal): 0.467 µM | TGI (A498 renal): 5.15 µM | GI50 (A549 NSCLC): 3.23 µM | TGI (A549 NSCLC): 77.6 µM | GI50 (ACHN renal): 1.64 µM | TGI (ACHN renal): 5.3 µM | GI50 (BT-549 breast): 0.887 µM | TGI (BT-549 breast): 5.33 µM | GI50 (CCRF-CEM leukemia): 0.385 µM | TGI (CCRF-CEM leukemia): > 100 µM | GI50 (DU-145 prostate): 0.385 µM | TGI (DU-145 prostate): > 100 µM | GI50 (EKVX NSCLC): 1.29 µM | TGI (EKVX NSCLC): > 100 µM | GI50 (HCC-2998 colon): 1.21 µM | TGI (HCC-2998 colon): 8.81 µM | GI50 (HCT-116 colon): 0.361 µM | TGI (HCT-116 colon): 5.51 µM | GI50 (HCT-15 colon): 1.94 µM | TGI (HCT-15 colon): > 100 µM | GI50 (HL-60(TB) leukemia): 0.358 µM | TGI (HL-60(TB) leukemia): 1.2 µM | GI50 (HOP-62 NSCLC): 0.46 µM | TGI (HOP-62 NSCLC): > 100 µM | GI50 (HOP-92 NSCLC): 1.26 µM | TGI (HOP-92 NSCLC): 8.1 µM | GI50 (HS 578T breast): 0.428 µM | TGI (HS 578T breast): > 100 µM | GI50 (HT29 colon): 0.378 µM | TGI (HT29 colon): 2.16 µM | GI50 (IGROV1 ovarian): 0.843 µM | TGI (IGROV1 ovarian): > 100 µM | GI50 (KM12 colon): 0.39 µM | TGI (KM12 colon): 2 µM | GI50 (LOX IMVI melanoma): 0.597 µM | TGI (LOX IMVI melanoma): 8.07 µM | GI50 (M14 melanoma): 0.311 µM | TGI (M14 melanoma): 1.84 µM | GI50 (MALME-3M melanoma): 0.457 µM | TGI (MALME-3M melanoma): 2.88 µM | GI50 (MCF7 breast): 0.338 µM | TGI (MCF7 breast): > 100 µM | GI50 (MDA-MB-231 breast): 1.14 µM | TGI (MDA-MB-231 breast): > 100 µM | GI50 (MOLT-4 leukemia): 0.905 µM | TGI (MOLT-4 leukemia): > 100 µM | GI50 (NCI-H226 lung): 1.47 µM | TGI (NCI-H226 lung): > 100 µM | GI50 (NCI-H23 lung): 0.665 µM | TGI (NCI-H23 lung): > 100 µM | GI50 (NCI-H460 lung): 0.404 µM | TGI (NCI-H460 lung): 9.59 µM | GI50 (NCI-H522 lung): 0.231 µM | TGI (NCI-H522 lung): 3.1 µM | GI50 (NCI/ADR-RES ovarian): 3.78 µM | TGI (NCI/ADR-RES ovarian): > 100 µM | GI50 (OVCAR-3 ovarian): 0.252 µM | TGI (OVCAR-3 ovarian): 0.647 µM | GI50 (OVCAR-4 ovarian): 1 µM | TGI (OVCAR-4 ovarian): > 100 µM | GI50 (OVCAR-5 ovarian): 1.1 µM | TGI (OVCAR-5 ovarian): > 100 µM | GI50 (OVCAR-8 ovarian): 0.635 µM | TGI (OVCAR-8 ovarian): 12.7 µM | GI50 (PC-3 prostate): 0.436 µM | TGI (PC-3 prostate): > 100 µM | GI50 (RXF 393 renal): 0.293 µM | TGI (RXF 393 renal): 0.917 µM | GI50 (SF-539 CNS): 0.266 µM | TGI (SF-539 CNS): 0.843 µM | GI50 (SK-MEL-2 melanoma): 0.637 µM | TGI (SK-MEL-2 melanoma): 5.22 µM | GI50 (SK-MEL-28 melanoma): 1.34 µM | TGI (SK-MEL-28 melanoma): > 100 µM | GI50 (SK-MEL-5 melanoma): 0.362 µM | TGI (SK-MEL-5 melanoma): 1.43 µM | GI50 (SK-OV-3 ovarian): 0.752 µM | TGI (SK-OV-3 ovarian): > 100 µM | GI50 (SN12C renal): 0.718 µM | TGI (SN12C renal): > 100 µM | GI50 (SNB-19 CNS): 0.846 µM | TGI (SNB-19 CNS): > 100 µM | GI50 (SNB-75 CNS): 1.12 µM | TGI (SNB-75 CNS): > 100 µM | GI50 (SW-620 colon): 0.455 µM | TGI (SW-620 colon): > 100 µM | GI50 (T-47D breast): 0.611 µM | TGI (T-47D breast): 14 µM | GI50 (TK-10 renal): 2.3 µM | TGI (TK-10 renal): 8.01 µM | GI50 (U251 CNS): 0.561 µM | TGI (U251 CNS): 21.9 µM | GI50 (UACC-257 melanoma): 2.37 µM | TGI (UACC-257 melanoma): 23.7 µM | GI50 (UACC-62 melanoma): 0.543 µM | TGI (UACC-62 melanoma): 3.48 µM | GI50 (UO-31 renal): 1.56 µM | TGI (UO-31 renal): 11.3 µM
